From ChEMBL document CHEMBL1806470, “Synthesis and antiglycation potentials of bergenin derivatives” (Bioorg Med Chem Lett, 2011)

Tested on: not listed separately
Assay: Antiglycation activity assessed as inhibition of Schiff-base formation at 200 uM
Assay type: physicochemical
Conditions: not given; call rule not given here

Row | inhibition (INH) | SMILES
1 | 109.4% | COc1c(O)cc2c(c1O)[C@@H]1O[C@H](CO)[C@@H](O)[C@H](O)[C@H]1OC2=O [BERGENIN]
2 | 95.96% | COc1c(O)cc2c(c1O)[C@@H]1O[C@H](COC(=O)c3cc(O)c(O)c(O)c3)[C@@H](O)[C@H](O)[C@H]1OC2=O
3 | 97.86% | COc1c(O)cc2c(c1O)[C@@H]1O[C@H](COC(=O)c3cccc(O)c3O)[C@@H](O)[C@H](O)[C@H]1OC2=O

Tested on: not listed separately
Assay: Antiglycation activity assessed as inhibition of Schiff-base formation
Assay type: physicochemical
Conditions: not given

Row | IC50 | SMILES
4 | 0.00054 µM | COc1c(O)cc2c(c1O)[C@@H]1O[C@H](CO)[C@@H](O)[C@H](O)[C@H]1OC2=O [BERGENIN]
5 | 9.06 µM | COc1c(O)cc2c(c1O)[C@@H]1O[C@H](COC(=O)c3cc(O)c(O)c(O)c3)[C@@H](O)[C@H](O)[C@H]1OC2=O
6 | 76 µM | COc1c(O)cc2c(c1O)[C@@H]1O[C@H](COC(=O)c3cccc(O)c3O)[C@@H](O)[C@H](O)[C@H]1OC2=O

Biological target: T1, Albumin (Bos taurus, UniProt P02769)
T1 sequence (P02769 whole entry): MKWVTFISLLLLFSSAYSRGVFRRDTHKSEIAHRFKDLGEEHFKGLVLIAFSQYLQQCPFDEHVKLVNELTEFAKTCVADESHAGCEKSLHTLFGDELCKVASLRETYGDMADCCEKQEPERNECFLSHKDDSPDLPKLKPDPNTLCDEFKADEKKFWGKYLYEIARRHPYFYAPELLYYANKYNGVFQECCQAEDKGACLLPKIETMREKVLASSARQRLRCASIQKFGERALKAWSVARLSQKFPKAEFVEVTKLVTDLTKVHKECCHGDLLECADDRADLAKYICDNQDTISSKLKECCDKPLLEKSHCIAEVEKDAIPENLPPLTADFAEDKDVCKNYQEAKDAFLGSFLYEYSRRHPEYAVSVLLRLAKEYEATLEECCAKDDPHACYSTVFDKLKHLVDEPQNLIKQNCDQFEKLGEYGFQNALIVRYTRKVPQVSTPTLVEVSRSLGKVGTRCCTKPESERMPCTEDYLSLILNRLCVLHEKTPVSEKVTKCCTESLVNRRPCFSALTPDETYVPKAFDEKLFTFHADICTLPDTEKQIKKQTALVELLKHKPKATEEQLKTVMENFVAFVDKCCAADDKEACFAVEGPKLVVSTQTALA
Assay: Antiglycation activity in bovine serum albumin assessed as inhibition of fructosamines formation in presence of glucose
Conditions: not given

Row | IC50 | SMILES
7 | 164 µM | COc1c(O)cc2c(c1O)[C@@H]1O[C@H](CO)[C@@H](O)[C@H](O)[C@H]1OC2=O [BERGENIN]
8 | 184 µM | COc1c(O)cc2c(c1O)[C@@H]1O[C@H](COC(=O)c3cc(O)c(O)c(O)c3)[C@@H](O)[C@H](O)[C@H]1OC2=O
9 | 322 µM | COc1c(O)cc2c(c1O)[C@@H]1O[C@H](COC(=O)c3cccc(O)c3O)[C@@H](O)[C@H](O)[C@H]1OC2=O

Tested on: not listed separately
Assay: Antiglycation activity assessed as inhibition of dicarbonyl compounds formation
Assay type: physicochemical
Conditions: not given

Row | IC50 | SMILES
10 | 8.95 µM | COc1c(O)cc2c(c1O)[C@@H]1O[C@H](COC(=O)c3cccc(O)c3O)[C@@H](O)[C@H](O)[C@H]1OC2=O

Tested on: not listed separately
Assay: Antiglycation activity assessed as inhibition of advanced glycation end product formation
Assay type: physicochemical
Conditions: not given

Row | IC50 | SMILES
11 | 187 µM | COc1c(O)cc2c(c1O)[C@@H]1O[C@H](CO)[C@@H](O)[C@H](O)[C@H]1OC2=O [BERGENIN]
12 | 12.3 µM | COc1c(O)cc2c(c1O)[C@@H]1O[C@H](COC(=O)c3cc(O)c(O)c(O)c3)[C@@H](O)[C@H](O)[C@H]1OC2=O
13 | 60.8 µM | COc1c(O)cc2c(c1O)[C@@H]1O[C@H](COC(=O)c3cccc(O)c3O)[C@@H](O)[C@H](O)[C@H]1OC2=O

Row | SMILES | IC50
14 | N=C(N)NN [PIMAGEDINE] | 88.9 µM

Biological target: T1, Albumin
Assay: Antiglycation activity in bovine serum albumin assessed as inhibition of fructosamines formation at 200 uM in presence of glucose
Conditions: cattle

Row | inhibition at 200 µM | SMILES
15 | 36.5% | COc1cc(C(=O)OC[C@H]2O[C@H]3c4c(cc(O)c(OC)c4O)C(=O)O[C@@H]3[C@@H](O)[C@@H]2O)ccc1O
16 | 21.4% | COc1c(O)cc2c(c1O)[C@@H]1O[C@H](COC(=O)c3ccc([N+](=O)[O-])cc3)[C@@H](O)[C@H](O)[C@H]1OC2=O
17 | 17.5% | COc1ccc(C(=O)OC[C@H]2O[C@H]3c4c(cc(O)c(OC)c4O)C(=O)O[C@@H]3[C@@H](O)[C@@H]2O)c([N+](=O)[O-])c1

Continued, compound first:

Row | SMILES | inhibition at 200 µM
18 | COc1c(O)cc2c(c1O)[C@@H]1O[C@H](CO)[C@@H](O)[C@H](O)[C@H]1OC2=O [BERGENIN] | 20.6%
19 | COc1cc(C(=O)OC[C@H]2O[C@H]3c4c(cc(O)c(OC)c4O)C(=O)O[C@@H]3[C@@H](O)[C@@H]2O)cc(OC)c1OC | 42.1%
20 | COc1c(O)cc2c(c1O)[C@@H]1O[C@H](COC(=O)c3cc(O)c(O)c(O)c3)[C@@H](O)[C@H](O)[C@H]1OC2=O | 22.2%
21 | COc1c(O)cc2c(c1O)[C@@H]1O[C@H](COC(=O)c3ccccc3)[C@@H](O)[C@H](O)[C@H]1OC2=O | 49.2%
22 | COc1c(O)cc2c(c1O)[C@@H]1O[C@H](COC(=O)c3cccc(O)c3O)[C@@H](O)[C@H](O)[C@H]1OC2=O | 26.2%

Same assay, conditions: cattle, 200 µM

Row | inhibition (INH) | SMILES
23 | Not Active | COc1c(O)cc2c(c1O)[C@@H]1O[C@H](COC(=O)/C=C/c3ccccc3)[C@@H](O)[C@H](O)[C@H]1OC2=O

Tested on: not listed separately
Assay: Antiglycation activity assessed as inhibition of advanced glycation end product formation at 200 uM
Assay type: physicochemical
Conditions: not given

Row | inhibition (INH) | SMILES
24 | Not Active | COc1cc(C(=O)OC[C@H]2O[C@H]3c4c(cc(O)c(OC)c4O)C(=O)O[C@@H]3[C@@H](O)[C@@H]2O)ccc1O
25 | Not Active | COc1c(O)cc2c(c1O)[C@@H]1O[C@H](COC(=O)c3ccc([N+](=O)[O-])cc3)[C@@H](O)[C@H](O)[C@H]1OC2=O
26 | Not Active | COc1ccc(C(=O)OC[C@H]2O[C@H]3c4c(cc(O)c(OC)c4O)C(=O)O[C@@H]3[C@@H](O)[C@@H]2O)c([N+](=O)[O-])c1

The remaining lines, values behind:

Row | SMILES | inhibition (INH)
27 | COc1c(O)cc2c(c1O)[C@@H]1O[C@H](CO)[C@@H](O)[C@H](O)[C@H]1OC2=O [BERGENIN] | 75.69%
28 | COc1cc(C(=O)OC[C@H]2O[C@H]3c4c(cc(O)c(OC)c4O)C(=O)O[C@@H]3[C@@H](O)[C@@H]2O)cc(OC)c1OC | Not Active
29 | N=C(N)NN [PIMAGEDINE] | 79.67%
30 | COc1c(O)cc2c(c1O)[C@@H]1O[C@H](COC(=O)c3cc(O)c(O)c(O)c3)[C@@H](O)[C@H](O)[C@H]1OC2=O | 83.62%
31 | COc1c(O)cc2c(c1O)[C@@H]1O[C@H](COC(=O)/C=C/c3ccccc3)[C@@H](O)[C@H](O)[C@H]1OC2=O | Not Active
32 | COc1c(O)cc2c(c1O)[C@@H]1O[C@H](COC(=O)c3ccccc3)[C@@H](O)[C@H](O)[C@H]1OC2=O | Not Active
33 | COc1c(O)cc2c(c1O)[C@@H]1O[C@H](COC(=O)c3cccc(O)c3O)[C@@H](O)[C@H](O)[C@H]1OC2=O | 93.27%

Tested on: not listed separately
Assay: Antiglycation activity assessed as inhibition of dicarbonyl compounds formation at 200 uM
Assay type: physicochemical
Conditions: not given

Row | inhibition (INH) | SMILES
34 | 102.66% | COc1c(O)cc2c(c1O)[C@@H]1O[C@H](CO)[C@@H](O)[C@H](O)[C@H]1OC2=O [BERGENIN]
35 | 102.22% | COc1c(O)cc2c(c1O)[C@@H]1O[C@H](COC(=O)c3cc(O)c(O)c(O)c3)[C@@H](O)[C@H](O)[C@H]1OC2=O
36 | 97.77% | COc1c(O)cc2c(c1O)[C@@H]1O[C@H](COC(=O)c3cccc(O)c3O)[C@@H](O)[C@H](O)[C@H]1OC2=O

Tested on: not listed separately
Assay: Antioxidant activity assessed as ABTS free radical scavenging activity
Conditions: not given

Row | IC50 | SMILES
37 | 4.2 µM | COc1cc(C(=O)OC[C@H]2O[C@H]3c4c(cc(O)c(OC)c4O)C(=O)O[C@@H]3[C@@H](O)[C@@H]2O)ccc1O
38 | 3.6 µM | COc1c(O)cc2c(c1O)[C@@H]1O[C@H](COC(=O)c3ccc([N+](=O)[O-])cc3)[C@@H](O)[C@H](O)[C@H]1OC2=O
39 | 4.4 µM | COc1ccc(C(=O)OC[C@H]2O[C@H]3c4c(cc(O)c(OC)c4O)C(=O)O[C@@H]3[C@@H](O)[C@@H]2O)c([N+](=O)[O-])c1

Further lines, the compound ahead of its results:

Row | SMILES | IC50
40 | COc1c(O)cc2c(c1O)[C@@H]1O[C@H](CO)[C@@H](O)[C@H](O)[C@H]1OC2=O [BERGENIN] | 2 µM
41 | COc1cc(C(=O)OC[C@H]2O[C@H]3c4c(cc(O)c(OC)c4O)C(=O)O[C@@H]3[C@@H](O)[C@@H]2O)cc(OC)c1OC | 3.2 µM
42 | COc1c(O)cc2c(c1O)[C@@H]1O[C@H](COC(=O)c3cc(O)c(O)c(O)c3)[C@@H](O)[C@H](O)[C@H]1OC2=O | 1.5 µM
43 | COc1c(O)cc2c(c1O)[C@@H]1O[C@H](COC(=O)/C=C/c3ccccc3)[C@@H](O)[C@H](O)[C@H]1OC2=O | 3 µM
44 | COc1c(O)cc2c(c1O)[C@@H]1O[C@H](COC(=O)c3ccccc3)[C@@H](O)[C@H](O)[C@H]1OC2=O | 3.5 µM
45 | COc1c(O)cc2c(c1O)[C@@H]1O[C@H](COC(=O)c3cccc(O)c3O)[C@@H](O)[C@H](O)[C@H]1OC2=O | 1.7 µM
